From PubChem BioAssay (NCI) come the findings set out here.

Common to all, as to assay: NCI anticancer screen, dose series, 48 h
For test [1], the system named is MALME-3M melanoma.
In test [2] the test system is SNB-78 CNS.
The subject of test [3] is UACC-62 melanoma.
Test [4] relates to NCI-H23 lung.
The subject of test [5] is K-562 leukemia.
Test [6] has as its system HCC-2998 colon.
The test system of test [7] is A498 renal.
In test [8] the test system is M19-MEL melanoma.
Test [9] deals with SK-OV-3 ovarian.
Test [10] deals with DLD-1 colon.
Test [11] relates to PC-3 prostate.

Structures are written as SMILES.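 Compound exposure: 48 hours, 5 concentrations, 96-well plates. Abbreviation: GI50, concentration required for 50% inhibition of growth. The concentration for full growth arrest is given as TGI.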 A value given as a limit tells only on which side of the number the result lay.

Turning to `Cc1cc(-c2ccccc2)nc(Nc2cc3ccccc3[nH]2)n1`, the TGI in test [1], in test [2], in test [3], in test [4], in [5] and in test [6] was > 100 µM throughout. The TGI in test [7], in test [8], in test [9] and in test [10] was > 100 µM each time.
`Cc1cc(N(CCC#N)S(=O)(=O)c2ccccc2)ccc1C=Nc1ccc(C(=O)O)cc1`: the TGI is > 100 µM in test [11]; 12 µM in test [1]; 34.7 µM in test [2]; 37.1 µM in test [3]; 33.9 µM in test [4]; 17.9 µM in test [5]. In addition, the TGI was 27.5 µM in test [6]; 44.5 µM in test [7]; 7.32 µM in test [8]; 48.9 µM in [9]; 4.11 µM in test [10].
With `Nc1nc2cc(Cl)ccc2n1N`, the TGI in [11], in test [1], in test [3], in test [4], in [5] and in test [6] was > 100 µM throughout. Further, the TGI in [7] and in test [9] was > 100 µM each time.
In the case of `NC(=O)NNC/C(Cl)=C(\Cl)C(=O)O`, the TGI in [1], in [2], in test [3], in test [4], in test [5] and in test [6] was > 100 µM throughout. Moreover, the TGI in test [7], in test [8], in test [9] and in test [10] was > 100 µM in each case.
In the case of `COc1c(C(N)=O)cc(-c2ccc(Cl)cc2)cc1-c1ccc(S(N)(=O)=O)cc1`, the GI50 was 7.08 µM in test [11]; 12.7 µM in test [1]; 12.8 µM in [3]; > 18.3 µM in test [4]; 7.94 µM in test [5]; 11.4 µM in test [6]. Also, the GI50 in test [7] is 9.03 µM; in test [9], > 22 µM. For the same compound, the TGI in [11] is 24.8 µM; in test [1], > 25 µM; in test [3] it was > 25 µM; in test [4], > 25 µM; in test [5], > 20.3 µM; in test [6] it was > 25 µM. Further, the TGI was > 23.3 µM in test [7] and > 25 µM in test [9].
Turning to `OC(c1cc(C(F)(F)F)nc2c(Cl)cc(Cl)cc12)C1CCCCN1` (stereo not given), the TGI in [11] was > 43.1 µM; in test [1], > 36.9 µM; in test [3] it was > 47.7 µM; in test [4], 23.8 µM; in [5], > 34.1 µM; in [6], > 100 µM. The TGI in test [7] was > 51.4 µM; in test [9] it was 25.2 µM.
On to `O=C1OC(OC/C(Br)=C(\Br)COC2OC(=O)C(Cl)=C2Cl)C(Cl)=C1Cl` (stereo not given), for which the TGI in test [11] worked out at 27.8 µM; in test [1] it was 9.02 µM; in [3], 16.9 µM; in [4], 14 µM; in test [5], 5.55 µM; in test [6], 33.7 µM. The TGI in [7] turned out to be 34.1 µM; in [9] it was 43 µM.
In the case of `C/C(=N\N=C(N)N)C(CN1CCOCC1)C(c1ccccc1)c1c(O)c2ccccc2oc1=O` (stereo not given), the TGI in test [1], in [2], in test [3], in test [4], in [5] and in test [6] was > 100 µM throughout. For the same compound, the TGI in test [8], in test [9] and in test [10] was > 100 µM throughout.
`CCOP(=O)(OCC)/C(=C/n1c(=S)[nH]c2ccccc21)C(=O)OC`: the TGI in test [11], in [1], in [3], in test [4], in test [5] and in [6] was > 100 µM throughout. For the same compound, the TGI in test [7] and in test [9] was > 100 µM throughout.
For the compound `COC(=O)Nc1nc2ccc(C(=O)c3cccc(I)c3)cc2[nH]1`, the GI50 in [11] was 0.0457 µM; in test [1] it was 0.274 µM; in test [3] it was 0.234 µM; in [4], 0.183 µM; in [5], 0.0364 µM; in test [6] it was 0.208 µM. In addition, the GI50 in test [7] is 0.0434 µM; in test [9], 0.257 µM. Also, the TGI in [11] turned out to be 6.18 µM; in [1] it was 24.1 µM; in test [3], 18.1 µM; in test [4] it was 21.1 µM; in test [5] it was 14.2 µM; in [6], 30.6 µM. Further, the TGI in [7] stood at 0.614 µM; in [9] it was 28.6 µM.
Consider `CC1=CC2(C)/C=C(C)/C=C\CC(O)/C=C3/C=CC(=C4C(=O)OC2(CC1C)C4=O)OC3` (stereo not given), for which the GI50 was 1.45 µM in test [11]; 2.14 µM in test [1]; 3.3 µM in test [3]; 2.66 µM in test [4]; 1.2 µM in test [5]; 5.78 µM in test [6]. Further, the figures for the GI50 in test [7] and in test [9] were 2.65 µM and 19.4 µM, respectively. Moreover, the TGI in test [11] was 7.89 µM; in test [1], 5.13 µM; in [3] it was 10.8 µM; in [4], 7.82 µM; in test [5] it was > 100 µM; in [6] it was 22.2 µM. In addition, the TGI stood at 8.11 µM in test [7] and 47.3 µM in [9].
Turning to `CC1C(c2ccccc2)N(C)C(c2ccccc2)C(C)C1(O)c1ccccc1` (stereo not given), the TGI in test [1], in test [2], in test [3], in test [4], in test [5] and in [6] was > 100 µM each time. The TGI in test [7], in test [8], in test [9] and in test [10] was > 100 µM in each case.
